Reference: patent US20190187155A1, “COMPOSITION AND METHODS FOR MEASURING ION CHANNEL ACTIVITY IN A CELL” (LIFE TECHNOLOGIES CORPORATION, priority 2016, published 2019)

Tested on: CHO cells expressing the hERG ion channel
Test: Thallium influx assay of cells expressing the hERG potassium ion channel, loaded with thallium ion indicator
Type: cell-based
Conditions: for change of fold increase (fluorogenic response) with dye loading concentration: dye concentration increased from 1 μM to 2 μM; for Fold Increase Over Baseline (fluorogenic response): loaded 60 minutes, potassium 10 mM; for Fold Increase Over Baseline (fluorogenic response) / detection of thallium ions (fluorescence dF/F over time): final thallium 2 mM; for detection of thallium ions (fluorescence dF/F over time) / response (signal amplitude) post stimulus, Compound 8 relative to Compound 9: FIG. 10, average of 5-10 wells; for response (signal amplitude) post stimulus, Compound 8 relative to Compound 9: fold increase in signal post stimulus over baseline
Procedure: Component A: Thallium ion indicator dye in amount that will prepare 1-10 uM solution in normal Chloride Assay Buffer. Component B: Physiological (normal) Chloride Assay Buffer: NaCl 145 mM; KCl 2.5 mM; CaCl2 1.8 mM; MgCl2 1.0 mM; HEPES 20 mM; pH set to 7.4 with NaOH. Component C: Chloride Free Stimulus Buffer: 140 mM Na Gluconate; 2.5 mM K Gluconate; 1.8 […] Ca Gluconate; 1.0 mM Mg Gluconate; 10 mM HEPES; 25 mM K2SO4; 5.0 mM Tl2SO4.
Cells including an ion channel are cultured to about 75% confluence and in log-phase growth. The cells are then harvested using well-known cell culture techniques and buffers and replated into a 96 well plate at a density of, for example, 5,000-40,000 cells per well (e.g., 20,000 cells per well). The cells comprise the ion channel endogenously, or the cells can be engineered to comprise ion channels of a particular type. Methods of transfecting and/or transforming cells to express a particular type of protein are well known in the art and need not be repeated herein.
To prepare the dye loading buffer, Component A is prepared in assay buffer (Component B) at concentrations from 1-20 micromolar. Optional addition of 1-100 μg/mL Pluronic surfactant can aid-in dispersion and loading of dye and/or 1-10 mM probenecid to aid in retention of the dye. Next the cell culture media is aspirated from the cells in the 96 well plate and replaced with dye loading buffer and incubated at room temperature for 60-120 minutes. While the cells are incubating in loading buffer, stimulus buffer (Component C) is prepared for addition to the microplate. The loading buffer then is removed from the cells, and replaced with […] that contains no dye, to reduce background fluorescence from unincorporated dye in the solution. Next, the fluorescence from the cells is read on a spectrophotometer. For samples implementing a thallium indicator that emits in the green spectral region, the sample is excited with light in the range of 470-500 nm, and emission is read at 520 to 540 nm, with a filter cutoff of 515 nm. For samples implementing a thallium indicator that emits in the red spectral region, the sample is excited with light in the range of 545-565 nm and read at 580-600 nm, with a filter cutoff of 570 nm. A pre-stimulus “baseline” signal is measured at regular intervals for 10-30 seconds in advance of adding Stimulus Buffer (Component C). Component C is added to the cells in a 1:5 dilution at the indicated time, and the increase in fluorescence from the cells is measured over time.
Cells expressing the hERG potassium ion channel were assayed using the method described in Example 10 to compare the efficacy of two different isomeric thallium ion indicators. CHO cells expressing the hERG ion channel were assayed using methods described herein. Cells were loaded in assay buffer containing the indicated concentration of dye in Table 1 (i.e., 1 or 10 μM) washed with dye-free assay buffer (Component B) and the stimulus buffer (Component C) was delivered to the cells in a volume of 25 μL, added to 100 μL for a 5× dilution (Component C, containing 25 mM T K2SO4 and […]). In this particular example, the final concentration of potassium on the cells was 10 mM and the final concentration of thallium on the cells was 2 mM. […] Fluorescence data from the samples was plotted over time as fold increase in signal (post stimulus) over baseline (pre stimulus). Signal amplitude was compared from an average of 5-10 individual wells loaded with the dye indicated.
Cells expressing the hERG potassium ion channel were assayed using the thallium influx method described in Example 11 to compare the efficacy of various thallium ion indicators disclosed herein. Thallium indicators were prepared in loading buffer at the concentrations listed in Table 1 and loaded into cells for 60 minutes. […]

[1] = dye loading concentration 1 μM, excitation 470-500 nm, emission 520-540 nm
[2] = dye loading concentration 2 μM, excitation 470-500 nm, emission 520-540 nm

Row | Structure (SMILES) | change of fold increase (fluorogenic response) with dye loading concentration | Fold Increase Over Baseline (fluorogenic response) [1] [fold] | Fold Increase Over Baseline (fluorogenic response) [2] [fold] | detection of thallium ions (fluorescence dF/F over time) | response (signal amplitude) post stimulus, Compound 8 relative to Compound 9 | response (signal amplitude) post stimulus, Compound 8 relative to Compound 9 (listed as compound 8) | Fold Increase Over Baseline (fluorogenic response) (dye loading concentration 10 μM, excitation 545-565 nm, emission 580-600 nm) [fold]
1 | COc1ccc(NC(=O)c2ccc3c(c2)C(=O)OC32c3ccc(OC(C)=O)cc3Oc3cc(OC(C)=O)ccc32)cc1N(CC(=O)OCOC(C)=O)CC(=O)OCOC(C)=O [Compound 2, bis(acetoxymethyl) 2,2′-((5-(3′,6′-diacetoxy-3-oxo-3H-spiro[isobenzofuran-1,9′-xanthene]-5-carboxamido)-2-methoxyphenyl)azanediyl)diacetate] | little to no change | 1.2 | 1.3 | – | – | – | –
2 | COc1cc(NC(=O)c2ccc3c(c2)C(=O)OC32c3cc(F)c(OC(C)=O)cc3Oc3cc(OC(C)=O)c(F)cc32)ccc1N(CC(=O)OCOC(C)=O)CC(=O)OCOC(C)=O [Compound 8, bis(acetoxymethyl) 2,2′-((4-(3′,6′-diacetoxy-2′,7′-difluoro-3-oxo-3H-spiro[isobenzofuran-1,9′-xanthene]-5-carboxamido)-2-methoxyphenyl)azanediyl)diacetate] | not affected | 3.4 | 3.4 | detected the presence of thallium ions | far more sensitive to thallium ions than Compound 9 | larger response (signal amplitude) | –
3 | COc1ccc(NC(=O)c2ccc3c(c2)C2(OC3=O)c3cc(F)c(OC(C)=O)cc3Oc3cc(OC(C)=O)c(F)cc32)cc1N(CC(=O)OCOC(C)=O)CC(=O)OCOC(C)=O [Compound 4, bis(acetoxymethyl) 2,2′-((5-(3′,6′-diacetoxy-2′,7′-difluoro-3-oxo-3H-spiro[isobenzofuran-1,9′-xanthene]-6-carboxamido)-2-methoxyphenyl)azanediyl)diacetate] | – | 1.5 | 1.4 | – | – | – | –
4 | COc1cc(-c2c3ccc(=[N+](C)C)cc-3oc3cc(N(C)C)ccc23)ccc1N(CC(=O)OCOC(C)=O)CC(=O)OCOC(C)=O.[Br-] [Compound 1, N-(9-(4-(bis(2-(acetoxymethoxy)-2-oxoethyl)amino)-3-methoxyphenyl)-6-(dimethylamino)-3H-xanthen-3-ylidene)-N-methylmethanaminium bromide] | – | – | – | – | – | – | 2.7
5 | COc1cc(NC(=O)c2ccc3c(c2)C2(OC3=O)c3cc(F)c(OC(C)=O)cc3Oc3cc(OC(C)=O)c(F)cc32)ccc1N(CC(=O)OCOC(C)=O)CC(=O)OCOC(C)=O [Compound 7, bis(acetoxymethyl) 2,2′-((4-(3′,6′-diacetoxy-2′,7′-difluroro-3-oxo-3H-spiro[isobenzofuran-1,9′-xanthene]-6-carboxamido)-2-methoxyphenyl)azanediyl)diacetate] | – | 2.3 | 1.5 | – | – | – | –
6 | COc1ccc(NC(=O)c2ccc3c(c2)C(=O)OC32c3cc(F)c(OC(C)=O)cc3Oc3cc(OC(C)=O)c(F)cc32)cc1N(CC(=O)OCOC(C)=O)CC(=O)OCOC(C)=O [Compound 9, bis(acetoxymethyl) 2,2′-((5-(3′,6′-diacetoxy-2′,7′-difluoro-3-oxo-3H-spiro[isobenzofuran-1,9′-xanthene]-5-carboxamido)-2-methoxyphenyl)azanediyl)diacetate] | not affected | 2.0 | 2.0 | detected the presence of thallium ions | – | – | –
7 | COc1cc(NC(=O)c2ccc3c(c2)C(=O)OC32c3ccc(OC(C)=O)cc3Oc3cc(OC(C)=O)ccc32)ccc1N(CC(=O)OCOC(C)=O)CC(=O)OCOC(C)=O [Compound 5, bis(acetoxymethyl) 2,2′-((4-(3′,6′-diacetoxy-3-oxo-3H-spiro[isobenzafuran-1,9′-xanthene]-5-carboxamido)-2-methoxyphenyl)azanediyl)diacetate] | decreased significantly | 3.7 | 3.1 | – | – | – | –
8 | COc1cc(NC(=O)c2ccc3c(c2)C2(OC3=O)c3ccc(OC(C)=O)cc3Oc3cc(OC(C)=O)ccc32)ccc1N(CC(=O)OCOC(C)=O)CC(=O)OCOC(C)=O [Compound 6, bis(acetoxymethyl) 2,2′-((4-(3′,6′-diacetoxy-3-oxo-3H-spiro[isobenzofuran-1,9′-xathene]-6-carboxamido)-2-methoxyphenyl)azanediyl)diacetate] | – | 3.7 | 2.8 | – | – | – | –
9 | COc1ccc(NC(=O)c2ccc3c(c2)C2(OC3=O)c3ccc(OC(C)=O)cc3Oc3cc(OC(C)=O)ccc32)cc1N(CC(=O)OCOC(C)=O)CC(=O)OCOC(C)=O [Compound 3, bis(acetoxymethyl) 2,2′-((5-(3′,6′-diacetoxy-3-oxo-3H-spiro[isobenzofuran-1,9′-xanthene]-6-carboxamido)-2-methoxyphenyl)azanediyl)diacetate] | – | 1.1 | 0.8 | – | – | – | –
